Measurements taken from publication PMC12195740, “Discovery of Novel Imidazothiazole-Based Hydroxamic Acid Derivatives as Potent Indoleamine 2,3-Dioxygenase 1 and Histone Deacetylase 6 Dual Inhibitors” (Molecules, 2025).

What was measured:
[1] = system: HCT-116 cells; experiment: Cell viability (MTT) assay, HCT-116; conditions: Homo sapiens, HCT-116, 48 h, read-out: Antiproliferative IC50, HCT-116
Procedure: Section S 1.3 Cell viability assays
(§1) another 48 h. The cells were stained with 10 μl of MTT at incubator for approximately 4 h. The medium was discarded and replaced by 100 mL DMSO. The O.D. value was read at 570/630 nm with a spectrophotometer.

[2] = system: SW480 cells; experiment: Cell viability (MTT) assay, SW480; conditions: Homo sapiens, SW480, 48 h, read-out: Antiproliferative IC50, SW480
Procedure: Section S 1.3 Cell viability assays
as §1

[3] = system: Ac-histone H3 (substrate for HDACs 1, 2, and 3); experiment: Western blot of Ac-histone H3 in HCT-116 cells; type: cell-based; conditions: HCT-116, 20 μM, 24 h
Procedure: Since HDACs regulate the acetylation status of histone and nonhistone proteins in cells, the acetylation levels of histone H3 (a known substrate for HDACs 1, 2, and 3) and α-tubulin (a known substrate for HDAC6) are frequently used as markers of cellular HDAC activity. […] HCT-116 cells were incubated with compound 10e (5−20 μM) for 24 h, and the levels of acetylation of histone H3 and α-tubulin were detected by the Western blot. […]
with 75% cold ethanol at 4 °C overnight. After that, fixed cells were washed with PBS. Then, cells were isolated by centrifugation and stained with propidium iodide (KeyGEN BioTECH, China) for 30 min. The samples were measured using flow cytometry and analyzed by Flowjo software.
Section S 1.6 Western blot assay
Total cell lysates from cultured HCT-116 cells after treatment with compound 10e as mentioned earlier were obtained by lysing the cells in ice-cold RIPA buffer with protease and phosphatase inhibitor and stored at -20°C for future use. The protein concentrations were quantified by the Bradford method (Bio-Rad) using a Multimode Varioscan instrument (Thermo Fischer Scientific). […]
The in vivo antitumor activity of compound 10e was evaluated in the mouse colon carcinoma cell line CT-26 in BALB/c mice as described previously. […]

[4] = target: HDAC4 (Homo sapiens, UniProt P56524); experiment: HDAC isoform selectivity assay, HDAC4; type: biochemical; conditions: read-out: HDAC4 % inhibition rate at 10 μM
HDAC4, sequence (P56524 whole entry, species assumed, canonical isoform): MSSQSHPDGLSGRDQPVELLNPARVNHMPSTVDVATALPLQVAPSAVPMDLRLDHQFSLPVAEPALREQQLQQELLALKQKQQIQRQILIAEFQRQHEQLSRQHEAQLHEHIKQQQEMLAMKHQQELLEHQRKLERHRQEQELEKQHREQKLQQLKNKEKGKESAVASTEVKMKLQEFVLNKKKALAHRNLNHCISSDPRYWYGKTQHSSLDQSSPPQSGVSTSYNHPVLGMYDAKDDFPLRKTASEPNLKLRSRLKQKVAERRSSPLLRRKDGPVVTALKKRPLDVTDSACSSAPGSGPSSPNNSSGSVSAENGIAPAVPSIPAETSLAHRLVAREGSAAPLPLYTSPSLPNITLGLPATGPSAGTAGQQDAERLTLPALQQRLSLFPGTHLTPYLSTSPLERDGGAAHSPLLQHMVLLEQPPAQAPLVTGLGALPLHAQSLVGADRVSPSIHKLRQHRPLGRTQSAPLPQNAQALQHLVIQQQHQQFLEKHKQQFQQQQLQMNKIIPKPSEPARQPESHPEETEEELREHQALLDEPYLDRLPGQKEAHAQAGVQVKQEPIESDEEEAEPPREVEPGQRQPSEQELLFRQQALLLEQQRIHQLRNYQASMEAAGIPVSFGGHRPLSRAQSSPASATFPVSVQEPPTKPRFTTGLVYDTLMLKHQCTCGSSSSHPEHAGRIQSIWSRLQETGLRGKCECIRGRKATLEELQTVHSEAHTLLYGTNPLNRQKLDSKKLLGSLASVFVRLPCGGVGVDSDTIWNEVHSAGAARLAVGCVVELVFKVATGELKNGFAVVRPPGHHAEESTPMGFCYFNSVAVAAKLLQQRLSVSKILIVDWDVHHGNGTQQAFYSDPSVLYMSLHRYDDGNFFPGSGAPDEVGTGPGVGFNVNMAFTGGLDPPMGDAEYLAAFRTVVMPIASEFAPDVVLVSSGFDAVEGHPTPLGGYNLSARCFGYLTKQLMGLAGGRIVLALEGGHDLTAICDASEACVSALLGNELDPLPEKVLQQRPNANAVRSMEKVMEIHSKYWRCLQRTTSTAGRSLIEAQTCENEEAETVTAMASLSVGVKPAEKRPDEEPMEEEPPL

[5] = Cell viability assay, HK2 normal renal cells; conditions: human
Excerpt: On the basis of the IDO1 and HDAC activities, we explored the proliferation inhibitory activities of the selected compounds against four solid tumor cells lines.

[6] = system: HCT-116 cells; experiment: Cell cycle analysis (PI, flow cytometry); type: cell-based; conditions: 24 h, control 7.77%
Procedure: To assess the impact of compound 10e on the cell cycle, HCT-116 cells were treated with different concentrations of compound 10e (5 μM, 10 μM, and 20 μM) for 24 h, then stained with PI, and analyzed using flow cytometry.
Cell Bank at the Chinese Academy of Sciences. Hct-116, SW480, MDA-MB-231 and MCF-7 cell […]
FBS. DMEM and FBS were obtained from Gibco-Thermo (BRL Co. Ltd., USA). The plates were incubated at 37 °C in a humidified atmosphere of 5% CO2/95% air overnight. The cells were then […]
another 48 h. The cells were stained with 10 μl of MTT at incubator for approximately 4 h. The medium was discarded and replaced by […] DMSO. The O.D. value was read at 570/630 nm with a spectrophotometer.
Section S 1.4 Molecular docking
Molecular docking was carried out in Sybyl-X 2.1 on a Windows workstation. The crystal structure of IDO1 protein with inhibitor was retrieved from the RCSB Protein Data Bank (IDO1:
4PK5, HDAC6: 6THV). Firstly, the 3D structure of the selected compound was built with Sybyl-X 2.1 sketch followed by energy minimization with the MMFF94 force field and Gasteiger-Marsili charges. The Powell’s method was used to optimize the geometry with a distance dependent dielectric constant and a termination energy gradient of 0.005 kcal/mol. […]
with 75% cold ethanol at 4 °C overnight. […] The samples were measured using flow cytometry and analyzed by Flowjo software. […]
Total cell lysates from cultured HCT-116 cells after treatment with compound 10e as mentioned earlier were obtained by lysing the cells in ice-cold RIPA buffer with protease and phosphatase inhibitor and stored at -20°C for future use. The protein concentrations were quantified by the Bradford method (Bio-Rad) using a Multimode Varioscan instrument (Thermo Fischer Scientific).
Equal amounts of protein per lane were applied to 12% SDS polyacrylamide gel for electrophoresis and transferred to a polyvinylidene difluoride (PVDF) membrane (Amersham Biosciences). […] Membranes were washed with TBST three times for 15 min and the protein bands were detected with chemiluminescence reagent (Thermo Fischer Scientific). […]

- IC50 [1]: 16.4 ± 3.76 µM
- IC50 [2]: 23.4 ± 3.86 µM
- inhibition at 10 µM [4]: 9.58%
SMILES: O=C(CCCCCCNc1ccc(NC(=O)c2cnc3scc(-c4ccc(Br)cc4)n23)cc1)NO [Compound 10e, 3-(4-Bromophenyl)-N-{4-[(7-(hydroxyamino)-7-oxoheptyl)amino]phenyl}imidazo[2,1-b]thiazole-5-carboxamide]
- Ac-histone H3 levels [3]: slight increase
- IC50 [5]: > 80 µM
- cell population in G2/M phase ([6]; HCT-116, 5 μM): 17.39%
- cell population in G2/M phase ([6]; HCT-116, 10 μM): 31.89%
- cell population in G2/M phase ([6]; HCT-116, 20 μM): 47.18%
